Laboratory results: PubChem BioAssay (NCI)
Values joined by “and” are separate entries in the source; they are usually repeats but may differ in a detail not shown here. Equal values may be shown once.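 Interpolation was linear, between the two tested concentrations surrounding the appropriate level; five concentrations were tested over 48 hours in 96-well plates. Abbreviation: GI50, concentration required for 50% inhibition of growth. TGI is the concentration that stops growth completely.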

Assays:
Experiment in all cases: growth of human tumour cells (NCI), 48 h
COLO 205 colon = tested on: COLO 205 colon
HCC-2998 colon = tested on: HCC-2998 colon
HCT-15 colon = tested on: HCT-15 colon
KM12 colon = tested on: KM12 colon
MALME-3M melanoma = tested on: MALME-3M melanoma
MCF7 breast = tested on: MCF7 breast
MOLT-4 leukemia = tested on: MOLT-4 leukemia
OVCAR-5 ovarian = tested on: OVCAR-5 ovarian
SF-539 CNS = tested on: SF-539 CNS
SW-620 colon = tested on: SW-620 colon

Row | Compound | GI50 (COLO 205 colon) | TGI (COLO 205 colon) | GI50 (HCC-2998 colon) | TGI (HCC-2998 colon) | GI50 (HCT-15 colon) | TGI (HCT-15 colon) [µM] | GI50 (KM12 colon) | TGI (KM12 colon) | GI50 (MALME-3M melanoma) | TGI (MALME-3M melanoma) | GI50 (MCF7 breast) | TGI (MCF7 breast) | GI50 (MOLT-4 leukemia) [µM] | TGI (MOLT-4 leukemia) [µM] | GI50 (OVCAR-5 ovarian) | TGI (OVCAR-5 ovarian) | GI50 (SF-539 CNS) | TGI (SF-539 CNS) | GI50 (SW-620 colon) | TGI (SW-620 colon)
1 | CSc1nc2nc(-c3ccccc3)c(C)c-2c2n1C(C)C(=O)N2 (stereo not drawn) | 41.4 µM | > 100 µM | 88.6 µM | > 100 µM | 51.2 µM | > 100 | 47.7 µM | > 100 µM | 43.1 µM | > 100 µM | 25.8 µM | > 100 µM | 40.3 | > 100 | > 100 µM | > 100 µM | 86.7 µM | > 100 µM | 58.8 µM | > 100 µM
2 | COc1ccc(/C=C2\C(=O)N(NC(C)=O)c3ccccc32)cc1 | – | > 100 µM | – | > 100 µM | – | > 100 | – | > 100 µM | – | > 100 µM | – | – | – | > 100 | – | > 100 µM | – | > 100 µM | – | > 100 µM
3 | COc1cc2nnc3c4cccnc4[nH]c3c2cc1OC | 6.92 µM and 2.96 µM | 16 µM and 11.6 µM | 2.28 µM and 1.95 µM | 13.6 µM and 3.79 µM | 2.3 µM and 1.43 µM | – | 2.68 µM and 1.91 µM | 50 µM and 15.4 µM | 7.54 µM and 2.28 µM | 22.9 µM and 5.68 µM | 0.836 µM and 0.34 µM | 10.9 µM and 2.82 µM | – | – | 7.26 µM and 2.53 µM | 50 µM and 7.24 µM | 2.79 µM and 1.73 µM | 11.4 µM and 3.52 µM | 0.961 µM and 0.444 µM | 50 µM and > 100 µM
4 | COc1ccc(-c2cc(/C=C/C(=O)c3ccc(N)cc3)[nH]n2)cc1OC | 1.88 µM | 3.59 µM | 2.02 µM | 3.83 µM | 1.7 µM | 5.37 | 1.68 µM | 3.35 µM | 6.72 µM | 21.2 µM | 2.28 µM | 8.48 µM | 3.11 | 16.5 | 2.62 µM | 7.94 µM | 1.73 µM | 3.53 µM | 2.5 µM | 6.94 µM
5 | COc1ccc2c(C(=O)O)cc3ccccc3c2c1OC | – | 44.2 µM | – | 46.8 µM | – | – | – | 33.9 µM | – | 41.9 µM | – | – | – | > 100 | – | 38.7 µM | – | 57.7 µM | – | 36.4 µM
6 | O=[N+]([O-])c1ccc(-c2ccc(C3=Nn4c(CNc5ccccc5Cl)nnc4SC3)o2)cc1 | – | > 100 µM | – | > 100 µM | – | > 100 | – | > 100 µM | – | > 100 µM | – | – | – | > 100 | – | > 100 µM | – | > 100 µM | – | > 100 µM
7 | O=C(COc1ccc(/C=C2\Oc3ccccc3C2=O)cc1)Nc1nc2ccccc2s1 | 32 µM | > 89.8 µM | 33.1 µM | > 100 µM | 33.8 µM | > 100 | 2.09 µM | > 100 µM | 3.94 µM | > 100 µM | 35.6 µM | > 100 µM | – | – | 39.4 µM | > 100 µM | 3.16 µM | > 100 µM | 24.2 µM | > 100 µM
8 | O=C(NCCc1ccccc1)C1C(=O)C(=O)N(CCc2ccccc2)C1=O (stereo not drawn) | – | – | – | – | – | > 100 | – | > 100 µM | – | > 100 µM | – | – | – | > 100 | – | – | – | > 100 µM | – | > 100 µM
9 | c1ccc(C(c2ccccc2)c2ccccn2)cc1 | – | > 100 µM | – | > 100 µM | – | > 100 | – | > 100 µM | – | > 100 µM | – | – | – | – | – | > 100 µM | – | > 100 µM | – | > 100 µM
10 | COc1cc(/C=C/c2cc(/C=C/c3ccc(O)c(OC)c3)n(C(=O)c3ccccc3Br)n2)ccc1O | 2.31 µM | 4.63 µM | 2.48 µM | 6.37 µM | 2.8 µM | > 100 | 2.22 µM | > 100 µM | 3.27 µM | 43.6 µM | 3 µM | 13 µM | 1.23 | > 100 | – | – | – | – | 3.66 µM | > 100 µM
11 | CCOC(=O)C1=C(NC)OCC1=O | – | > 100 µM | – | > 100 µM | – | > 100 | – | > 100 µM | – | > 100 µM | – | – | – | – | – | > 100 µM | – | > 100 µM | – | > 100 µM
12 | COc1cc(/C=C2\NC(=O)C(Cc3cc(OC)c(OC)c(C)c3OC)N(C(C)=O)C2=O)c(OC)c(C)c1OC (stereo not drawn) | – | > 100 µM | – | > 100 µM | – | – | – | > 100 µM | – | > 100 µM | – | – | – | > 100 | – | > 100 µM | – | > 100 µM | – | > 100 µM
13 | CC(=O)Oc1c(C(=O)[O-])cc(C(C)C)cc1C(C)C.CC(=O)Oc1c(C(=O)[O-])cc(C(C)C)cc1C(C)C.CC(=O)Oc1c(C(=O)[O-])cc(C(C)C)cc1C(C)C.CC(=O)Oc1c(C(=O)[O-])cc(C(C)C)cc1C(C)C.[Cu+2].[Cu+2] | 21 µM | 42.5 µM | – | – | 27.5 µM | > 100 | 19.1 µM | > 100 µM | – | – | 21 µM | 65.2 µM | 74.9 | > 100 | 57.2 µM | > 100 µM | 72.3 µM | > 100 µM | 42.1 µM | > 100 µM
14 | COc1ccc(-c2nc3ccc(Cc4ccc5nc(-c6ccc(OC)cc6)[nH]c5c4)cc3[nH]2)cc1 | < 0.01 µM | 0.184 µM | 0.027 µM | 0.188 µM | – | – | < 0.01 µM | 0.163 µM | – | – | 0.0254 µM | 0.424 µM | < 0.01 | 1.29 | 0.182 µM | 2.85 µM | 0.022 µM | 0.0707 µM | < 0.0151 µM | 0.173 µM
15 | O=C1C2C3C=CC(C2C(=O)N1CO)C1C2C(=O)N(CO)C(=O)C2C31 (stereo not drawn) | – | > 66.9 µM | – | > 100 µM | – | > 62.9 | – | > 100 µM | – | > 100 µM | – | – | – | > 100 | – | > 100 µM | – | > 100 µM | – | > 66.7 µM
16 | CC(=O)[CH-]C(=O)c1ccccc1.[C-]#[O+].[C-]#[O+].[Ir] | > 100 µM | > 100 µM | > 100 µM | > 100 µM | > 100 µM | > 100 | > 10 µM | > 10 µM | > 100 µM | > 100 µM | – | – | – | – | > 100 µM | > 100 µM | > 100 µM | > 100 µM | > 100 µM | > 100 µM
17 | COc1ccc(Nc2cnc3cc(N)cc(N)c3n2)cc1 | 30.5 µM | > 100 µM | – | – | – | – | 18.4 µM | 36.2 µM | 15.2 µM | 39.4 µM | 18.4 µM | 40.9 µM | 12.5 | > 100 | – | – | 17.3 µM | 36.6 µM | 21.8 µM | 52.8 µM
